Data published in patent publication US6737383B1, “Herbicidal oxadiazolidines” (priority 1999, dated 2004).

Assays:
smallflower flatsedge = test: Test B flood test smallflower flatsedge; type: in vivo, Cyperus difformis
How it was run: (§1)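 Read-out is a visual response score from 0 (no effect) to 10 (complete control), assigned by comparison with untreated controls. Treatment was applied at the 2-leaf stage, and plants stayed in the greenhouse for twelve to sixteen days before scoring.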

blackgrass = test: Test B pre/postemergence blackgrass; type: in vivo, Alopecurus myosuroides
How it was run: (§2)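 Response is a visual 0-to-10 score relative to untreated plants, where 0 means no effect and 10 means complete control, taken twelve to sixteen days after application. Treatments went onto soil at planting and onto foliage of 1- to 4-leaf plants, using a surfactant-containing non-phytotoxic solvent.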

duck salad = test: Test B flood test duck salad; type: in vivo, Heteranthera limosa
How it was run: as §1

wild oat = test: Test B pre/postemergence wild oat; type: in vivo, Avena fatua
How it was run: as §2

velvetleaf = test: Test B pre/postemergence velvetleaf; type: in vivo, Abutilon theophrasti
How it was run: as §2

giant foxtail = test: Test B pre/postemergence giant foxtail; type: in vivo, Setaria faberii
How it was run: as §2

bedstraw = test: Test B pre/postemergence bedstraw; type: in vivo, Galium aparine
How it was run: as §2

crabgrass = test: Test B pre/postemergence crabgrass; type: in vivo, Digitaria sanguinalis
How it was run: as §2

pigweed = test: Test B pre/postemergence pigweed; type: in vivo, Amaranthus retroflexus
How it was run: as §2

surinam grass = test: Test B pre/postemergence surinam grass; type: in vivo, Brachiaria decumbens
How it was run: as §2

morningglory = test: Test B pre/postemergence morningglory; type: in vivo, Ipomoea hederacea
How it was run: as §2

soybean = test: Test B pre/postemergence soybean; type: in vivo, Glycine max
How it was run: as §2

purple nutsedge = test: Test B pre/postemergence purple nutsedge; type: in vivo, Cyperus rotundus
How it was run: as §2

wheat = test: Test B pre/postemergence wheat; type: in vivo, Triticum aestivum
How it was run: as §2

rice = test: Test B flood test rice; type: in vivo, Oryza sativa
How it was run: as §1

corn = test: Test B pre/postemergence corn; type: in vivo, Zea mays
How it was run: as §2

[1] = Rate 62 g/ha, headed Pre-emergence (flood test species), scale 0 to 10 (0 no effect, 10 complete control)
[2] = Rate 125 g/ha, Pre-emergence, flood test species, scale 0 to 10 where 0 is no effect and 10 is complete control
[3] = Rate 250 g/ha, Pre-emergence, flood-test species, scale 0 to 10, 0 is no effect, 10 is complete control
[4] = Rate 500 g/ha, Pre-emergence, flood test species, scale 0 to 10 (0 no effect, 10 complete control)
[5] = Preemergence, Rate 62 g/ha, scale of 0 to 10 where 0 is no effect and 10 is complete control
[6] = Preemergence, Rate 250 g/ha, scale of 0 to 10 where 0 is no effect and 10 is complete control
[7] = Preemergence, Rate 500 g/ha, scale of 0 to 10 where 0 is no effect and 10 is complete control
[8] = Rate 62 g/ha, Postemergence, scale of 0 to 10 where 0 is no effect and 10 is complete control
[9] = Rate 125 g/ha, Postemergence, scale 0 to 10
[10] = Rate 125 g/ha, Preemergence, scale of 0 to 10 where 0 is no effect and 10 is complete control
[11] = Rate 500 g/ha, Postemergence, scale 0 to 10

C#CCn1c(=O)on(C(=O)N(c2ccc(F)cc2)C(C)C)c1=O [Compound 212]
S. Flatsedge plant response rating (smallflower flatsedge; [1]): 0 | S. Flatsedge plant response rating (smallflower flatsedge; [2]): 0 | S. Flatsedge plant response rating (smallflower flatsedge; [3]): 0 | S. Flatsedge plant response rating (smallflower flatsedge; [4]): 0 | Blackgrass plant response rating (blackgrass; [5]): 4 | Blackgrass plant response rating (blackgrass; [6]): 7 | Plant response rating, Blackgrass (blackgrass; [7]): 9 | Blackgrass plant response rating (blackgrass; [8]): 6 | Blackgrass plant response rating (blackgrass; [9]): 6 | Blackgrass plant response rating (blackgrass; [10]): 4 | Plant response rating (0 to 10; 0 is no effect, 10 is complete control), Blackgrass (blackgrass; Rate 250 g/ha, Postemergence): 6 | Blackgrass plant response rating (blackgrass; [11]): 7 | Ducksalad plant response rating (duck salad; [1]): 0 | Ducksalad plant response rating (duck salad; [2]): 0 | Ducksalad plant response rating (duck salad; [3]): 0 | Ducksalad plant response rating (duck salad; [4]): 2 | Wild oats plant response rating (wild oat; [5]): 0 | Wild oats plant response rating (wild oat; [6]): 3 | Plant response rating, Wild oats (wild oat; [7]): 7 | Wild oats plant response rating (wild oat; [8]): 0 | Wild oats plant response rating (wild oat; [9]): 0 | Plant response rating (0 to 10; 0 is no effect, 10 is complete control), Wild oats (wild oat; Rate 250 g/ha, Postemergence): 0 | Velvetleaf plant response rating (velvetleaf; [5]): 2 | Velvetleaf plant response rating (velvetleaf; [6]): 5 | Plant response rating, Velvetleaf (velvetleaf; [7]): 5 | Velvetleaf plant response rating (velvetleaf; [8]): 3 | Velvetleaf plant response rating (velvetleaf; [9]): 4 | Plant response rating (0 to 10; 0 is no effect, 10 is complete control), Velvetleaf (velvetleaf; Rate 250 g/ha, Postemergence): 5 | Giant foxtail plant response rating (giant foxtail; [5]): 2 | Giant foxtail plant response rating (giant foxtail; [6]): 9 | Plant response rating, Giant foxtail (giant foxtail; [7]): 10 | Giant foxtail plant response rating (giant foxtail; [8]): 4 | Giant foxtail plant response rating (giant foxtail; [9]): 6 | Giant foxtail plant response rating (giant foxtail; [10]): 4 | Plant response rating (0 to 10; 0 is no effect, 10 is complete control), Giant foxtail (giant foxtail; Rate 250 g/ha, Postemergence): 6 | Giant foxtail plant response rating (giant foxtail; [11]): 9 | Bedstraw plant response rating (bedstraw; [5]): 0 | Bedstraw plant response rating (bedstraw; [6]): 0 | Plant response rating, Bedstraw (bedstraw; [7]): 10 | Bedstraw plant response rating (bedstraw; [8]): 0 | Bedstraw plant response rating (bedstraw; [9]): 0 | Bedstraw plant response rating (bedstraw; [10]): 0 | Plant response rating (0 to 10; 0 is no effect, 10 is complete control), Bedstraw (bedstraw; Rate 250 g/ha, Postemergence): 2 | Bedstraw plant response rating (bedstraw; [11]): 7 | Crabgrass plant response rating (crabgrass; [5]): 0 | Crabgrass plant response rating (crabgrass; [6]): 5 | Plant response rating, Crabgrass (crabgrass; [7]): 5 | Crabgrass plant response rating (crabgrass; [8]): 6 | Crabgrass plant response rating (crabgrass; [9]): 6 | Crabgrass plant response rating (crabgrass; [10]): 4 | Plant response rating (0 to 10; 0 is no effect, 10 is complete control), Crabgrass (crabgrass; Rate 250 g/ha, Postemergence): 8 | Crabgrass plant response rating (crabgrass; [11]): 9 | Redroot pigweed plant response rating (pigweed; [5]): 9 | Redroot pigweed plant response rating (pigweed; [6]): 10 | Plant response rating, Redroot pigweed (pigweed; [7]): 10 | Redroot pigweed plant response rating (pigweed; [8]): 0 | Redroot pigweed plant response rating (pigweed; [9]): 5 | Redroot pigweed plant response rating (pigweed; [10]): 9 | Redroot pigweed plant response rating (pigweed; [11]): 7 | B. signalgrass plant response rating (surinam grass; [5]): 0 | B. signalgrass plant response rating (surinam grass; Preemergence, Rate 250 g/ha, scale 0 to 10, 0 is no effect, 10 is complete control): 5 | Plant response rating, B. signalgrass (surinam grass; [7]): 5 | B. signalgrass plant response rating (surinam grass; [8]): 2 | B. signalgrass plant response rating (surinam grass; Rate 125 g/ha, Postemergence, scale 0 (no effect) to 10 (complete control)): 4 | B. signalgrass plant response rating (surinam grass; [10]): 1 | Plant response rating (0 to 10; 0 is no effect, 10 is complete control), B. signalgrass (surinam grass; Rate 250 g/ha, Postemergence): 7 | B. signalgrass plant response rating (surinam grass; Rate 500 g/ha, Postemergence, scale 0 to 10, 0 no effect, 10 complete control): 7 | Morningglory plant response rating (morningglory; [5]): 0 | Morningglory plant response rating (morningglory; [6]): 0 | Plant response rating, Morningglory (morningglory; [7]): 0 | Morningglory plant response rating (morningglory; [8]): 2 | Morningglory plant response rating (morningglory; [9]): 3 | Morningglory plant response rating (morningglory; [10]): 0 | Plant response rating (0 to 10; 0 is no effect, 10 is complete control), Morningglory (morningglory; Rate 250 g/ha, Postemergence): 4 | Morningglory plant response rating (morningglory; [11]): 8 | Soybean plant response rating (soybean; [5]): 0 | Soybean plant response rating (soybean; [6]): 0 | Plant response rating, Soybean (soybean; [7]): 0 | Soybean plant response rating (soybean; [8]): 1 | Soybean plant response rating (soybean; [9]): 2 | Soybean plant response rating (soybean; [10]): 0 | Plant response rating (0 to 10; 0 is no effect, 10 is complete control), Soybean (soybean; Rate 250 g/ha, Postemergence): 3 | Soybean plant response rating (soybean; [11]): 4 | Nutsedge plant response rating (purple nutsedge; [5]): 0 | Nutsedge plant response rating (purple nutsedge; [6]): 0 | Plant response rating, Nutsedge (purple nutsedge; [7]): 0 | Nutsedge plant response rating (purple nutsedge; [8]): 0 | Nutsedge plant response rating (purple nutsedge; [9]): 0 | Nutsedge plant response rating (purple nutsedge; [10]): 0 | Plant response rating (0 to 10; 0 is no effect, 10 is complete control), Nutsedge (purple nutsedge; Rate 250 g/ha, Postemergence): 0 | Nutsedge plant response rating (purple nutsedge; [11]): 0 | Wheat plant response rating (wheat; [5]): 0 | Wheat plant response rating (wheat; [6]): 5 | Plant response rating, Wheat (wheat; [7]): 7 | Wheat plant response rating (wheat; [8]): 0 | Wheat plant response rating (wheat; [9]): 0 | Wheat plant response rating (wheat; [10]): 0 | Plant response rating (0 to 10; 0 is no effect, 10 is complete control), Wheat (wheat; Rate 250 g/ha, Postemergence): 0 | Rice plant response rating (rice; [1]): 0 | Rice plant response rating (rice; [2]): 0 | Rice plant response rating (rice; [3]): 0 | Rice plant response rating (rice; [4]): 0 | Corn plant response rating (corn; [5]): 0 | Corn plant response rating (corn; [6]): 0 | Plant response rating, Corn (corn; [7]): 0 | Corn plant response rating (corn; [8]): 0 | Corn plant response rating (corn; [9]): 0 | Corn plant response rating (corn; [10]): 0 | Plant response rating (0 to 10; 0 is no effect, 10 is complete control), Corn (corn; Rate 250 g/ha, Postemergence): 0 | Corn plant response rating (corn; [11]): 0
